The text below walks through data of patent publication US8501713B2, “Drug combinations for the treatment of duchenne muscular dystrophy” (Summit Corporation PLC, priority 2007, dated 2013).

One experiment concerns Utrophin A promoter linked to a luciferase reporter gene. Nature of the experiment: Luciferase reporter assay (murine H2K cells). The experiment is classed as cell-based. To be noted: Mus musculus, H2K mdx, luciferase level relative to control; H2K/mdx/Utro A reporter cells; compound 10 μM final concentration; read-out: Activity. The procedure: 1. Luciferase Reporter Assay (Murine H2K Cells)
The cell line used for the screen is an immortalized mdx mouse H2K cell line that has been stably transfected with a plasmid containing […] fragment of the Utrophin A promoter including the first untranslated exon linked to a luciferase reporter gene. Under conditions of low temperature and interferon containing media, the cells remain as myoblasts. These are plated into 96 well plates and cultured in the presence of compound for three days. The level of luciferase is then determined by cell lysis and reading of the light output from the expressed luciferase gene utilising a plate luminometer.
H2K/mdx/Utro A reporter Cell Line Maintenance
The cells were grown at 33° C. in the presence of 10% CO2. To remove the myoblasts for platting, they were incubated with Trypsin EDTA until the monolayer started to detach.
The plates were then incubated at 33° C. in the presence of 10% CO2 for 24 hrs. Compounds were dosed by adding 10 μl of diluted compound to each well giving a final concentration of 10 μM. The plates were then incubated for a further 48 hrs. Cells were then lysed in situ following the manufacture's protocols (Promega Steady-Glo Luciferase Assay System (E2520). Then counted for 10 seconds using a plate luminometer (Victor1420).
Compounds for screening were stored at −20° C. as 10 mM stocks in 100% DMSO until required.
Biological activity as assessed using the luciferase reporter assay in murine H2K cells, and is classified as follows: […]
With `CCCc1ccc2oc(-c3cccc(C(=O)O)c3)nc2c1` [Example 80, 3-(5-propylbenzo[d]oxazol-2-yl)benzoic acid], the activity at 10 µM was less than 200%.

On to `CCC(=O)Nc1ccc2oc(-c3ccc(C)cc3)nc2c1` [Example 115, N-(2-p-tolylbenzo[d]oxazol-5-yl)propionamide], for which the activity at 10 µM was greater than 401%.

As to `O=C(O)c1ccc2oc(-c3ccc4ccccc4c3)nc2c1` [Example 449, 2-(Naphthalen-2-yl)benzo[d]oxazole-5-carboxylic acid], the activity at 10 µM was greater than 401%.

Turning to `CC(=O)c1ccc2oc(-c3ccc(Cl)cc3)nc2c1` [Example 420, 1-(2-(4-chlorophenyl)benzo[d]oxazol-5-yl)ethanone], the activity at 10 µM was greater than 401%.

As for `O=C(Nc1ccc2oc(-c3ccc(Cl)cc3)nc2c1)C1CCCC1` [Example 346, N-(2-(4-chlorophenyl)benzo[d]oxazol-5-yl)cyclopentanecarboxamide], the activity at 10 µM is less than 200%.

Take `Cc1cc2nc(-c3ccc(F)cc3F)oc2cc1C` [Example 247, 2-(2,4-difluorophenyl)-5,6-dimethylbenzo[d]oxazole]: the activity at 10 µM was 201 to 300%.

With `Nc1ccc(-c2nc3cc(N)ccc3o2)c(O)c1` [Example 82, 5-amino-2-(5-aminobenzo[d]oxazol-2-yl)phenol], the activity at 10 µM lay within 201 to 300%.

As to `COc1ccc2cc(-c3nc4cc(NC(=O)C(C)C)ccc4o3)ccc2c1` [Example 412, N-(2-(6-methoxynaphthalen-2-yl)benzo[d]oxazol-5-yl)isobutyramide], the activity at 10 µM is less than 200%.

For the compound `O=C(Nc1ccc2oc(-c3ccc(Cl)cc3)nc2c1)[C@@H]1CCCN1` [Example 362, (S)-N-(2-(4-chlorophenyl)benzo[d]oxazol-5-yl)pyrrolidine-2-carboxamide], the activity at 10 µM was in the range of 201 to 300%.

`CCCCNc1ccc2oc(-c3ccc(C)cc3)nc2c1` [Example 185, N-butyl-2-p-tolylbenzo[d]oxazol-5-amine]: the activity at 10 µM fell in the range of 301 to 400%.

Turning to `Cc1ccc(-c2nc3cc(NCc4ccccc4)ccc3o2)cc1` [Example 187, N-benzyl-2-p-tolylbenzo[d]oxazol-5-amine], the activity at 10 µM lay in the range of 301 to 400%.

Turning to `Nc1ccc2oc(-c3ccccc3O)nc2c1` [Example 38, 2-(5-aminobenzo[d]oxazol-2-yl)phenol], the activity at 10 µM lay in the range of 301 to 400%.

In the case of `CC(C)C(=O)Nc1ccc2oc(CCc3ccccc3)nc2c1` [Example 302, N-(2-phenethylbenzo[d]oxazol-5-yl)isobutyramide], the activity at 10 µM was less than 200%.

As to `CC(C)C(=O)Nc1ccc2ccn(C)c2c1` [Example 378, N-(1-methyl-1H-indol-6-yl)isobutyramide], the activity at 10 µM was less than 200%.

In the case of `O=C(Nc1ccc2oc(-c3ccc(Cl)cc3)nc2c1)C1CC1` [Example 265, N-(2-(4-chlorophenyl)benzo[d]oxazol-5-yl)cyclopropanecarboxamide], the activity at 10 µM was greater than 401%.

Consider `CCCc1ccc(-c2nc3ccc(-c4nc5ccc(C(=O)O)cc5o4)cc3o2)cc1` [Example 110, 2′-(4-propylphenyl)-2,6′-bibenzo[d]oxazole-6-carboxylic acid], for which the activity at 10 µM was less than 200%.

For the compound `CC(C)C(=O)Nc1ccc2sc(-c3ccc(Cl)c(Cl)c3)nc2c1` [Example 297, N-(2-(3,4-dichlorophenyl)benzo[d]thiazol-5-yl)isobutyramide], the activity at 10 µM is greater than 401%.

As for `Cc1ccc(-c2nc3cc(N)ccc3o2)cc1` [Example 18, 2-p-tolylbenzo[d]oxazol-5-amine], the activity at 10 µM was less than 200%.

As for `CCCC(=O)Nc1ccc2oc(-c3ccccc3)nc2c1` [Example 10, N-(2-phenylbenzo[d]oxazol-5-yl)butyramide], the activity at 10 µM lay within 301 to 400%.

As to `CC(C)C(=O)Nc1ccc2sc(-c3ccccc3Cl)nc2c1` [Example 295, N-(2-(2-chlorophenyl)benzo[d]thiazol-5-yl)isobutyramide], the activity at 10 µM was greater than 401%.

For `Clc1ccc(-c2nc3cc4c(cc3o2)OCO4)cc1` [Example 310, 2-(4-chlorophenyl)-5,6-methylenedioxybenzoxazole], the activity at 10 µM was 301 to 400%.

As for `Nc1ccc(-c2nc3cc(Br)ccc3o2)cc1` [Example 336, 4-(5-bromobenzo[d]oxazol-2-yl)aniline], the activity at 10 µM is greater than 401%.

In the case of `CN(C)c1ccc(C(=O)Nc2ccc3oc(-c4cccnc4)nc3c2)cc1` [Example 44, 4-(dimethylamino)-N-(2-(pyridin-3-yl)benzo[d]oxazol-5-yl)benzamide], the activity at 10 µM was less than 200%.

Take `Nc1ccc2oc(N3CCOCC3)nc2c1` [Example 360, 2-morpholinobenzo[d]oxazol-5-amine]: the activity at 10 µM is less than 200%.

In the case of `Nc1ccc2oc(-c3ccc(N4CCCCC4)cc3)nc2c1` [Example 150, 2-(4-(piperidin-1-yl)phenyl)benzo[d]oxazol-5-amine], the activity at 10 µM lay within 201 to 300%.

Consider `CCN(CC)c1ccc(-c2nc3ccccc3o2)cc1` [Example 143, 4-(benzo[d]oxazol-2-yl)-N,N-diethylaniline], for which the activity at 10 µM was 201 to 300%.

For the compound `CCS(=O)(=O)c1ccc2oc(-c3ccc(Cl)c(Cl)c3)nc2c1` [Example 301, 2-(3,4-diChlorophenyl)-5-(ethylsulfonyl)benzo[d]oxazole], the activity at 10 µM is 201 to 300%.

Take `CCCC(=O)Nc1ccc2oc(-c3cccc(C)c3)nc2c1` [Example 200, N-(2-m-tolylbenzo[d]oxazol-5-yl)butyramide]: the activity at 10 µM is greater than 401%.

On to `CC(=O)Nc1ccc(-c2nc3cc(NC(C)=O)ccc3o2)cc1` [Example 365, N-(4-(5-acetamidobenzo[d]oxazol-2-yl)phenyl)acetamide], for which the activity at 10 µM is less than 200%.

On to `Clc1ccc(-c2nc3cc(NCc4ccccc4)ccc3o2)cc1` [Example 184, N-benzyl-2-(4-chlorophenyl)benzo[d]oxazol-5-amine], for which the activity at 10 µM is less than 200%.

Regarding `CC(C)(C)OC(=O)NCCC(=O)Nc1ccc2oc(-c3ccccc3)nc2c1` [Example 246, tert-butyl 3-oxo-3-(2-phenylbenzo[d]oxazol-5-ylamino)propylcarbamate], the activity at 10 µM is less than 200%.

Turning to `Clc1ccc(-c2nc3cc(-c4ccc(N5CCOCC5)cc4)ccc3o2)cc1` [Example 291, 2-(4-chlorophenyl)-5-(4-morpholinophenyl)benzo[d]oxazole], the activity at 10 µM was 201 to 300%.

With `Cc1ccccc1-c1nc2cc(N)ccc2o1` [Example 205, 2-o-tolylbenzo[d]oxazol-5-amine], the activity at 10 µM lay within 301 to 400%.

For the compound `CC(=O)Nc1ccc(-c2ccc3[nH]c(-c4ccc(Cl)cc4)cc3c2)cc1` [Example 367, N-(4-(2-(4-chlorophenyl)-1H-indol-5-yl)phenyl)acetamide], the activity at 10 µM is less than 200%.

`CC(C)C(=O)Nc1ccc2cc(-c3ccccc3)n(C)c2c1` [Example 389, N-(1-methyl-2-phenyl-1H-indol-6-yl)isobutyramide]: the activity at 10 µM is less than 200%.

In the case of `O=C(Nc1ccc2oc(-c3ccc(C(F)(F)F)cc3)nc2c1)c1cccnc1` [Example 121, N-(2-(4-(trifluoromethyl)phenyl)benzo[d]oxazol-5-yl)nicotinamide], the activity at 10 µM is less than 200%.

Still in this experiment, the particulars now being: luciferase reporter assay in murine H2K cells; classified relative to control.
`Cc1nn(-c2nc3ccccc3[nH]2)c(N)c1-c1ccccc1` [Example 659]: the Activity entry is “+++ (Between 301% and 400% relative to control)”.

With `Cc1c(N)cccc1-c1nc2cc(Cl)ccc2o1` [Example 566], the Activity result is “+ (Up to 200% relative to control)”.

For `Cc1cc2nc(-c3cccc(NC(=O)c4ccco4)c3)oc2cc1C` [Example 623], the Activity entry is listed as “++++ (Above 401% relative to control)”.

As for `Nc1ccc2oc(-c3ccc(Cl)cc3)nc2c1` [Example 488], the Activity result was “++ (Between 201% and 300% relative to control)”.

Turning to `O=C(COc1ccc2c(c1)OCO2)Nc1nc2ccccc2s1` [Example 614], the Activity entry is listed as “+ (Up to 200% relative to control)”.

Take `CC(=O)Nc1ccc(-c2nc3ccccc3[nH]2)cc1` [Example 591]: the Activity result is “+++ (Between 301% and 400% relative to control)”.

On to `Cn1c(-c2ccc([N+](=O)[O-])cc2)nc2ccccc21` [Example 472], for which the Activity entry is given as “+ (Up to 200% relative to control)”.

As to `Cc1ccc(-c2nc3cc(N)ccc3o2)c(Cl)c1` [Example 527], the Activity entry was “++ (Between 201% and 300% relative to control)”.

For `c1ccc(OCc2nc3ccccc3[nH]2)cc1` [Example 471], the Activity result is “++ (Between 201% and 300% relative to control)”.

With `COc1ccc(-c2nc3cc(N)ccc3o2)cc1` [Example 512], the Activity entry is “+ (Up to 200% relative to control)”.

Regarding `Cc1ccc2oc(-c3cccs3)nc2c1` [Example 612], the Activity entry was “++ (Between 201% and 300% relative to control)”.

Regarding `Cc1ccc2nc(-c3cccc(NC(=O)c4ccco4)c3)[nH]c2c1` [Example 538], the Activity entry was “+ (Up to 200% relative to control)”.

As to `Clc1ccc(-c2nc3ccccc3s2)c(Cl)c1` [Example 595], the Activity entry is “++ (Between 201% and 300% relative to control)”.

In the case of `Nc1ccc(Oc2ccc(-c3nc4ccccc4[nH]3)cc2)cc1` [Example 557], the Activity result is listed as “++++ (Above 401% relative to control)”.

In the case of `CC(C)(C)c1ccc2oc(-c3ccc(N)cc3)nc2c1` [Example 593], the Activity entry is “+++ (Between 301% and 400% relative to control)”.
